Key:
IL-1β = IL-1β expression in LPS stimulated PBMCs (Meso Scale); format: cell-based, human; conditions: Homo sapiens, PBMC; for inhibition at 1 µM: compound concentration 1 μM; for inhibition at 0.1 µM: compound concentration 0.1 μM
Method in brief: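 Human PBMCs (200,000 cells/well in RPMI-1640/10% FBS) were pretreated with compound for 1 h, then stimulated with 100 ng/mL LPS for 18-24 h. IL-1β in supernatant was measured by Meso Scale assay. Activity is expressed as percentage of LPS-induced level, with DMSO-treated wells as negative control.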

IL-6 = IL-6 expression in LPS stimulated PBMCs (Meso Scale); format: cell-based, human; conditions: Homo sapiens, PBMC, LPS-stimulated PBMCs; for inhibition at 1 µM: compound concentration 1 μM; for inhibition at 0.1 µM: compound concentration 0.1 μM
Method in brief: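 Thawed human PBMCs at 200,000 cells/well in RPMI-1640/10% FBS were pretreated with compound or DMSO for 1 h, then stimulated with 100 ng/mL LPS for 18–24 h. Supernatant IL-6 was measured by Meso Scale assay and expressed as % of LPS-induced activity.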

TNF-α = TNF-α expression in LPS stimulated PBMCs (Meso Scale); format: cell-based, human; conditions: Homo sapiens, PBMC; for inhibition at 1 µM: compound concentration 1 μM; for inhibition at 0.1 µM: compound concentration 0.1 μM
Method in brief: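 Thawed primary human PBMCs, 200,000 cells/well in RPMI-1640/10% FBS, pretreated with compound 1 h, then stimulated with 100 ng/mL LPS for 18-24 h. Supernatant TNF-α measured by Meso Scale assay; activity expressed as percentage of LPS-induced level, DMSO as negative control.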

IL-2 = assay: anti-CD3-induced IL-2 secretion in PBMCs; format: cell-based; conditions: Homo sapiens, PBMC, anti-CD3 stimulated PBMCs, 24 h, DMSO = 1.0, read-out: Fold Change IL-2; for fold induction at 1 µM: compound concentration 1 μM; for fold induction at 0.1 µM: compound concentration 0.1 μM
Procedure: FIGS. 4 and 9D are graphs showing anti-CD3-induced IL-2 secretion in PBMCs. 1 ug/mL anti-CD3 (OKT-3) antibody in PBS were coated onto 96-well plates overnight at 4° C. Approximately 550,000 PBMCs were added to each well, followed by addition of DMSO only, Compound 1-8 at 10 μM (FIG. 4) or Compound 9 at 0.1 μM or 1 μM (FIG. 9D), or 10 μM lenalidomide (rev). Induction was measured after 24 h as fold difference from the DMSO stimulated control.
For the IL-2 analysis, 96 well plates were precoated with 1 ug/mL anti-human CD3 antibody (OKT3, eBioscience Inc.). After washing with PBS, compounds were added to the wells (50 μL/well) followed by PBMCs diluted at 3-4 million cells/mL (150 μL/well). Plates were incubated for 24 h and the supernatants collected for Mesoscale IL-2 analysis.
Compound activity was measured as fold difference from the DMSO control. IL-1-beta activity is shown in FIG. 1; IL-6 activity is shown in FIG. 2; TNF-α activity is shown in FIG. 3; and IL-2 activity is shown in FIG. 4.

GSPT1 = biological target: T1, GSPT1 (Homo sapiens, UniProt P15170); assay: GSPT1 protein levels by Western Blot analysis; format: cell-based; conditions: DMSO = 100.00; for remaining activity at 0.1 µM: 100 nM compound concentration; for remaining activity at 1 µM: 1 μM compound concentration
T1 construct: Whole cell extracts were prepared using RIPA buffer according to manufacturer's protocol (Pierce); endogenous in cells
T1 sequence (P15170 whole entry): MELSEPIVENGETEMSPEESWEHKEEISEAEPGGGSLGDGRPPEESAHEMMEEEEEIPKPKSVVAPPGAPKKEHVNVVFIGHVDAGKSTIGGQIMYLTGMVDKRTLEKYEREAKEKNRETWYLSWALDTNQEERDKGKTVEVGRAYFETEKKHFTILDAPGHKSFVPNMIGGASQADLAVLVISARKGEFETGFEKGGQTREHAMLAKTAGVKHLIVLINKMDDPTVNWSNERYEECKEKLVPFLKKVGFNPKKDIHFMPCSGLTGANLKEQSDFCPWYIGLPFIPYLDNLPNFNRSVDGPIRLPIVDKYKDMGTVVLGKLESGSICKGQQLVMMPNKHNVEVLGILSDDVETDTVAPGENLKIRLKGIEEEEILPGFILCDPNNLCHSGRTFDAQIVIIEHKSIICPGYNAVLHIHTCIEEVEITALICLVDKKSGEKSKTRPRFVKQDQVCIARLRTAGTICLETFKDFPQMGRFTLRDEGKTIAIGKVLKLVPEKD
T1 sequence (Q96SW2 whole entry, further chain): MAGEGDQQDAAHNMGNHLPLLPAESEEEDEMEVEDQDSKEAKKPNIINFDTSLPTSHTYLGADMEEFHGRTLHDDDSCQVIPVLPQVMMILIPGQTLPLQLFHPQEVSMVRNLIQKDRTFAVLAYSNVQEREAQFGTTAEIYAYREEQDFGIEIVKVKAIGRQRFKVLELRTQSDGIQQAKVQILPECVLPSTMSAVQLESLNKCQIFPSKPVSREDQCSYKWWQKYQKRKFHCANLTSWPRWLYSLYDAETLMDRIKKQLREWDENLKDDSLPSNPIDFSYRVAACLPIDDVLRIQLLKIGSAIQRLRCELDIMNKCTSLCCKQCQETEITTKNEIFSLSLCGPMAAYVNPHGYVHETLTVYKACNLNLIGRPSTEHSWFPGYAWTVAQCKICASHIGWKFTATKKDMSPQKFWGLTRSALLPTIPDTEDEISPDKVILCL
T1 sequence (Q16531 whole entry partner): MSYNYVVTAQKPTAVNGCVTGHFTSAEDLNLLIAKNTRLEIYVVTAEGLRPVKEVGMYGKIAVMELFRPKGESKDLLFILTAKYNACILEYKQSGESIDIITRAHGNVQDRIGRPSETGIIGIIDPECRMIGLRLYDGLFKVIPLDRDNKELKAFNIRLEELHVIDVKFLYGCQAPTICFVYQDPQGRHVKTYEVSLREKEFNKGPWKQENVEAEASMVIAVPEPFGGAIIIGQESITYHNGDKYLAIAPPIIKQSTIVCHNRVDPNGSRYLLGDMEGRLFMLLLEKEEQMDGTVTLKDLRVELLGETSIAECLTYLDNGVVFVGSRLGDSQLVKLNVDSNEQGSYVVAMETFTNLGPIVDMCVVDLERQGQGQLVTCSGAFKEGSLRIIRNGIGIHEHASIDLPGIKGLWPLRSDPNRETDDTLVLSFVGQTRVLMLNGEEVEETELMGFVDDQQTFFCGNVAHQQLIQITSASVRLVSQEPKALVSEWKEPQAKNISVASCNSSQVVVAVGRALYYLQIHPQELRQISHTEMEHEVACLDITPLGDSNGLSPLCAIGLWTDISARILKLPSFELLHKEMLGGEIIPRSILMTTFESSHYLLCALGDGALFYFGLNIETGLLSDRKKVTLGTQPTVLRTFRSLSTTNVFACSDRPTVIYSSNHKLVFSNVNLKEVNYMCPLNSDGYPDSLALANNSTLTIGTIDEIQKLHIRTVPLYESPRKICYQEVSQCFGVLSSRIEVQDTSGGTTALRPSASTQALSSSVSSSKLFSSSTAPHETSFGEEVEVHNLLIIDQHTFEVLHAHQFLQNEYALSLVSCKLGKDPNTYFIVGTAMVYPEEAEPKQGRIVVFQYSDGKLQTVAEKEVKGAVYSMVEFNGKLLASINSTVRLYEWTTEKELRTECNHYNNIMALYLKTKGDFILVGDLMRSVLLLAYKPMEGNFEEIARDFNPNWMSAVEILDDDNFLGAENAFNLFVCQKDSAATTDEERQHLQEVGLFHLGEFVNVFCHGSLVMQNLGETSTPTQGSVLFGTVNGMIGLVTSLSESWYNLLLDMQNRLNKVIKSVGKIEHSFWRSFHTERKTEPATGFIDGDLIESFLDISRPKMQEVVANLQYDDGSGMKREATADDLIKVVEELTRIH
Procedure: Cells were lysed using RIPA Buffer (Pierce) and a Western Blot analysis was performed using anti-GSPT1 and anti-β-actin antibodies. FIG. 11B is a graph showing the expression levels of GSPT1 protein in Molm-13 (AML) cells. Protein expression levels were measured using the LiCor Odyssey instrumentation and methods.
Western Blot Protocol: Cell lines were grown in RPMI 1640 supplemented with streptomycin, penicillin and 10% fetal bovine serum.
Cells were cultured at approximately 10^6 cells per mL and incubated in DMSO or each of the indicated compounds for 6-8 h. Whole cell extracts were prepared using RIPA buffer according to manufacturer's protocol (Pierce). Briefly, 2×10^6 cells were washed once in PBS, the cell pellets were resuspended in RIPA buffer and allowed to incubate for 15 minutes on ice. Cells debris was removed by centrifugation and the cleared whole cell lysates were transferred to new tubes for further analysis.
For Western blot analysis, whole cell protein extracts were separated on 4-12% SDS-polyacrylamide gels, transferred to nitrocellulose, and probed with the indicated primary antibodies. Membranes were subsequently washed and probed with the appropriate IRDye secondary antibodies (LI-COR). The signal was detected using the Odyssey Imaging System (LI-COR).
GSPT1: Rabbit anti-GSPT1 was obtained from Abcam, ab126090 (Cambridge, Eng.)

H1048 cells = assay: H1048 cell viability (CellTiter-Glo); format: cell-based; conditions: Homo sapiens, NCI-H1048, 72 h, H1048, 3 days, DMSO = 100.00; for viability at 1 µM: 1 μM compound concentration; for viability at 10 µM: 10 μM compound concentration
Procedure: FIG. 10A is a graph showing antiproliferative activity in H1048 (SCLC) cells. FIG. 10B is a graph showing antiproliferative activity in Molm-13 (AML) cells. In FIGS. 10A and 10B, the cells were incubated for 72 hrs with Compound 9 at the indicated concentrations or DMSO. Compound activity was measured based on the signal from remaining viable cells.
(§1) Molm-13 cells were cultivated in RPMI-1640 (10% FBS/1% pen-strep) and were plated in white walled 96-well plates at 20,000 cells/well. H1048 cells were cultured in DMEM:F12 media supplemented with 5% fetal bovine serum, insulin, transferrin, sodium selenite, hydrocortisone, β-estradiol, penicillin and streptomycin, and were plated in white walled 96-well plates at 20,000 cells/well. MDA-MB-231 cells were cultured in DMEM media supplemented with 10% fetal bovine serum, penicillin and streptomycin, and were plated in white walled 96-well plates at 10,000 cells/well. Cells were treated with compound or DMSO (0.1%, control) and the cultures were incubated for 3 days at 37° C. and 5% CO2. Following the incubation period, 100 μL of CellTiterGlow (CTG) reagent (CellTiter-Glo® Luminescent Cell Viability Assay, Promega (Madison, Wis.)) was added to each well. Following a 10 min incubation with shaking, luminescence was measured using a Victor Wallac Luminometer.

Molm-13 cells = assay: Molm-13 cell viability (CellTiter-Glo); format: cell-based; conditions: Homo sapiens, MOLM-13, read-out: % Inhibition (MOLM-13 Cell Viability); for cytotoxicity at 10 µM: compound concentration 10 μM
Method in brief: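 Molm-13 (RPMI-1640, 10% FBS) and H1048 (DMEM:F12, 5% FBS with supplements) plated at 20,000 cells/well, treated with compound or 0.1% DMSO for 3 days at 37° C., 5% CO2. Viability read by CellTiter-Glo luminescence after 10 min.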

MDA-MB-231 cells = assay: MDA-MB-231 cell viability (CellTiter-Glo); format: cell-based; conditions: Homo sapiens, 72 h, 3 days, DMSO = 100.00; for viability at 1 µM: 1 μM compound concentration; for viability at 10 µM: 10 μM compound concentration
Procedure: as §1

Row | Structure (SMILES) | remaining activity at 0.1 µM (GSPT1) | remaining activity at 1 µM (GSPT1) | inhibition at 1 µM (IL-1β) | inhibition at 1 µM (IL-6) | inhibition at 1 µM (TNF-α) | fold induction at 1 µM (IL-2) | viability at 1 µM (H1048 cells) | viability at 10 µM (H1048 cells) | cytotoxicity at 1 µM (Molm-13 cells; compound concentration 1 μM) | viability at 1 µM (MDA-MB-231 cells) | viability at 10 µM (MDA-MB-231 cells) | cytotoxicity at 10 µM (Molm-13 cells) | inhibition at 0.1 µM (IL-1β) | inhibition at 0.1 µM (IL-6) | inhibition at 0.1 µM (TNF-α) | fold induction at 0.1 µM (IL-2) | cytotoxicity at 0.5 µM (Molm-13 cells; compound concentration 0.5 μM) | cytotoxicity at 0.003 µM (Molm-13 cells; compound concentration 0.003 μM)
1 | Cc1ccc(CC(=O)NCc2scc3c2CN([C@H]2CCCC(=O)NC2=O)C3=O)cc1Cl [Compound 31, (S)-2-(3-Chloro-4-methylphenyl)-N-((5-(2,7-dioxoazepan-3-yl)-4-oxo-5,6-dihydro-4H-thieno[3,4-c]pyrrol-1-yl)methyl)acetamide] | 131% | 108% | 76% | 40% | 80% | 1.7 | 84.3% | 26.8% | – | 103% | 107% | 12% | – | – | – | – | – | –
2 | O=C1CCC[C@H](N2Cc3c(csc3CNC(=O)Nc3ccc(C(F)(F)F)c(Cl)c3)C2=O)C(=O)N1 [Compound 32, (S)-1-(3-Chloro-4-(trifluoromethyl)phenyl)-3-((5-(2,7-dioxoazepan-3-yl)-4-oxo-5,6-dihydro-4H-thieno[3,4-c]pyrrol-1-yl)methyl)urea] | 61.7% | 29.3% | – | – | – | – | 10.6% | 10.8% | – | 91.2% | 44.3% | – | 67% | 65% | 62% | 0.8 | 25% | –
3 | Cc1ccc(CNC(=O)NCc2scc3c2CN(C2CCC(=O)NC2=O)C3=O)cc1Cl (stereo not shown) [Compound 33, 1-(3-Chloro-4-methylbenzyl)-3-((5-(2,6-dioxopiperidin-3-yl)-4-oxo-5,6-dihydro-4H-thieno[3,4-c]pyrrol-1-yl)methyl)urea] | 5.9% | 5.5% | – | – | – | – | 8.76% | 8.21% | – | 21.7% | 19.8% | – | 95% | 99% | 95% | 0.3 | – | 50%
4 | Cc1ccc(NC(=O)NCc2cc3c(s2)C(=O)N([C@H]2CCCC(=O)NC2=O)C3)cc1Cl [Compound 35, (S)-1-(3-Chloro-4-methylphenyl)-3-((5-(2,7-dioxoazepan-3-yl)-6-oxo-5,6-dihydro-4H-thieno[2,3-c]pyrrol-2-yl)methyl)urea] | 112% | 44.5% | 44% | 16% | 39% | 1.4 | 15.5% | 12.4% | – | 99% | 64.8% | 93% | – | – | – | – | – | –
5 | Cc1ccc(NC(=O)NCc2scc3c2CN([C@H]2CCCC(=O)NC2=O)C3=O)cn1 [Compound 37, (S)-1-((5-(2,7-Dioxoazepan-3-yl)-4-oxo-5,6-dihydro-4H-thieno[3,4-c]pyrrol-1-yl)methyl)-3-(6-methylpyridin-3-yl)urea] | 124% | 154% | 4% | 3% | 6% | 1.1 | 55% | 10.5% | – | 106% | 97.7% | 51% | – | – | – | – | – | –

Further lines, with some results ahead:

Row | remaining activity at 0.1 µM (GSPT1) | remaining activity at 1 µM (GSPT1) | Structure (SMILES) | inhibition at 1 µM (IL-1β) | inhibition at 1 µM (IL-6) | inhibition at 1 µM (TNF-α) | fold induction at 1 µM (IL-2) | viability at 1 µM (H1048 cells) | viability at 10 µM (H1048 cells) | cytotoxicity at 1 µM (Molm-13 cells; compound concentration 1 μM) | viability at 1 µM (MDA-MB-231 cells) | viability at 10 µM (MDA-MB-231 cells) | cytotoxicity at 10 µM (Molm-13 cells) | inhibition at 0.1 µM (IL-1β) | inhibition at 0.1 µM (IL-6) | inhibition at 0.1 µM (TNF-α) | fold induction at 0.1 µM (IL-2) | cytotoxicity at 0.5 µM (Molm-13 cells; compound concentration 0.5 μM) | cytotoxicity at 0.003 µM (Molm-13 cells; compound concentration 0.003 μM)
6 | 42.7% | 5.28% | Cc1ccc(NC(=O)NCc2scc3c2CN([C@H]2CCCC(=O)NC2=O)C3=O)cc1Cl [Compound 30, (S)-1-(3-Chloro-4-methylphenyl)-3-((5-(2,7-dioxoazepan-3-yl)-4-oxo-5,6-dihydro-4H-thieno[3,4-c]pyrrol-1-yl)methyl)urea] | 81% | 98% | 84% | 0.4 | 8.55% | 8.34% | 50% | 52.9% | 26.3% | – | – | – | – | – | – | –
7 | 84.9% | 37.5% | Cc1ccc(CNC(=O)NCc2scc3c2CN([C@H]2CCCC(=O)NC2=O)C3=O)cc1Cl [Compound 34, (S)-1-(3-Chloro-4-methylbenzyl)-3-((5-(2,7-dioxoazepan-3-yl)-4-oxo-5,6-dihydro-4H-thieno[3,4-c]pyrrol-1-yl)methyl)urea] | 70% | 39% | 69% | 1.6 | 12.9% | 8.34% | – | 102% | 44.4% | 99% | – | – | – | – | – | –
8 | 92.9% | 32.6% | Cc1cc(C)c(NC(=O)NCc2scc3c2CN([C@H]2CCCC(=O)NC2=O)C3=O)cc1Cl [Compound 36, (S)-1-(5-Chloro-2,4-dimethylphenyl)-3-((5-(2,7-dioxoazepan-3-yl)-4-oxo-5,6-dihydro-4H-thieno[3,4-c]pyrrol-1-yl)methyl)urea] | 40% | 38% | 33% | 0.8 | 10.6% | 7.51% | – | 101% | 53.4% | 100% | – | – | – | – | – | –

Reference: US10040804B2, “Compounds targeting proteins, compositions, methods, and uses thereof” (BioTheryX, Inc., priority 2016, dated 2018)
